Measured values taken from patent publication US20080269267A1, “KINASE INHIBITORS USEFUL FOR THE TREATMENT OF MYLEOPROLIFIC DISEASES AND OTHER PROLIFERATIVE DISEASES” (Deciphera Pharmaceuticals, LLC, priority 2007, published 2008).

Columns and labels:
[1] = biological target: B-Raf(V600E) kinase (SEQ ID NO:11) (Homo sapiens, UniProt P15056, V600E); test: B-Raf(V600E) kinase assay (pyruvate kinase/lactate dehydrogenase coupled, MEK1 substrate); conditions: 1 h preincubation at 30° C., ATP 0.2 mM; read-out: B-Raf V600E Enzyme Assay, biochemical IC50
Description: B-Raf(V600E) Kinase Assay
The activity of B-Raf(V600E) kinase (SEQ ID NO:11) was determined by following the formation of ADP from the reaction through coupling with the pyruvate kinase/lactate dehydrogenase system (e.g., Schindler, et al. Science (2000) 289, 1938-1942). In this assay, the oxidation of NADH (thus the decrease at A340nm) was continuously monitored spectrophotometrically. The reaction mixture (100 μl) contained B-Raf(V600E) kinase (0.34 nM nominal concentration, SEQ ID NO:11), unphosphorylated, full-length MEK1 (42 nM, SEQ ID NO:12), MgCl2 (13 mM), pyruvate kinase (3.5 units), lactate dehydrogenase (5.5 units), phosphoenolpyruvate (1 mM), and NADH (0.28 mM), in 60 mM Tris buffer, containing 0.13% octyl-glucoside and 3.5% DMSO concentration at pH 7.5. The test compounds were incubated with the reaction mixture at 30° C. for 1 h. The reaction was initiated by adding ATP (0.2 mM, final concentration). The absorption at 340 nm was continuously monitored for 3 h at 30° C. on a Polarstar Optima plate reader (BMG). The reaction rate was calculated using the 0.5 h to 1.5 h time frame. Percent inhibition was obtained by comparison of reaction rate with that of a control (i.e. with no test compound). IC50 values were calculated from a series of percent inhibition values determined at a range of inhibitor concentrations using software routines as implemented in the GraphPad Prism software package.

Abl kinase (SEQ ID NO:1) = biological target: T1, Abl kinase (SEQ ID NO:1) (Homo sapiens, UniProt P00519); test: Abl kinase assay (pyruvate kinase/lactate dehydrogenase coupled, ADP production); conditions: 2 h preincubation at 30° C., ATP 500 μM; read-out: Abl Enzyme Assay, biochemical IC50
T1 construct: purchased deCode Genetics
T1 sequence (P00519 with tags, fused parts or gaps): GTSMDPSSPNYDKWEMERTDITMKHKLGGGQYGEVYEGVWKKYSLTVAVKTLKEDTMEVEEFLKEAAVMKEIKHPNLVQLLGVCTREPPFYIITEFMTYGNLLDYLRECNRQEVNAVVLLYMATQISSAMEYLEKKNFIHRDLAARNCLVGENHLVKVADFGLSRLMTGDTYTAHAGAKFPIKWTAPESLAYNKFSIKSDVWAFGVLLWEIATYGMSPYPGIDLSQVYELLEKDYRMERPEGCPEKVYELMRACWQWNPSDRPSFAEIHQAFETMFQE
Description: Abl Kinase (SEQ ID NO:1) Assay
Activity of Abl kinase (SEQ ID NO:1) was determined by following the production of ADP from the kinase reaction through coupling with the pyruvate kinase/lactate dehydrogenase system (e.g., Schindler, et al. Science (2000) 289, 1938-1942). In this assay, the oxidation of NADH (thus the decrease at A340nm) was continuously monitored spectrophometrically. The reaction mixture (100 μl) contained Abl kinase (1 nM. Abl from deCode Genetics), peptide substrate (EAIYAAPFAKKK. 0.2 mM), MgCl2 (10 mM), pyruvate kinase (4 units), lactate dehydrogenase (0.7 units), phosphoenol pyruvate (1 mM), and NADH (0.28 mM) in 90 mM Tris buffer containing 0.2% octyl-glucoside and 3.5% DMSO, pH 7.5. Test compounds were incubated with Abl (SEQ ID NO:1) and other reaction reagents at 30° C. for 2 h before ATP (500 μM) was added to start the reaction. The absorption at 340 nm was monitored continuously for 2 hours at 30° C. on Polarstar Optima plate reader (BMG). The reaction rate was calculated using the 1.0 to 2.0 h time frame. Percent inhibition was obtained by comparison of reaction rate with that of a control (i.e. with no test compound). IC50 values were calculated from a series of percent inhibition values determined at a range of inhibitor concentrations using software routines as implemented in the GraphPad Prism software package.

[2] = biological target: T2, BaF3 cells transfected with wild type p210 BCR-Abl (Homo sapiens, UniProt P00519); test: Ba/F3 p210 whole cell proliferation assay (Cell Titer Blue, 72 hours); format: cell-based; conditions: 72 hours incubation; read-out: Ba/F3 p210 whole cell proliferation assay, antiproliferation IC50
T2 construct: fused on or other part: P11274 (Breakpoint cluster region protein)
Description: BaF3 cells (parental or transfected with the following: wild type p210 BCR-Abl and T315I p210 BCR-Abl was obtained from Professor Richard Van Etten (New England Medical Center, Boston, Mass.). Briefly, cells were grown in RPMI 1640 supplemented with 10% characterized fetal bovine serum (HyClone, Logan, Utah) at 37 degrees Celsius, 5% CO2, 95% humidity. Cells were allowed to expand until reaching 80% saturation at which point they were subcultured or harvested for assay use.
A serial dilution of test compound was dispensed into a 96 well black clear bottom plate (Corning, Corning, N.Y.). For each cell line, three thousand cells were added per well in complete growth medium. Plates were incubated for 72 hours at 37 degrees Celsius, 5% CO2, 95% humidity. At the end of the incubation period Cell Titer Blue (Promega, Madison, Wis.) was added to each well and an additional 4.5 hour incubation at 37 degrees Celsius, 5% CO2, 95% humidity was performed. Plates were then read on a BMG Fluostar Optima (BMG, Durham, N.C.) using an excitation of 544 nm and an emission of 612 nm. Data was analyzed using Prism software (Graphpad, San Diego, Calif.) to calculate IC50's.

Sequence of B-Raf(V600E) kinase (SEQ ID NO:11) (P15056 with tags, fused parts or gaps V600E): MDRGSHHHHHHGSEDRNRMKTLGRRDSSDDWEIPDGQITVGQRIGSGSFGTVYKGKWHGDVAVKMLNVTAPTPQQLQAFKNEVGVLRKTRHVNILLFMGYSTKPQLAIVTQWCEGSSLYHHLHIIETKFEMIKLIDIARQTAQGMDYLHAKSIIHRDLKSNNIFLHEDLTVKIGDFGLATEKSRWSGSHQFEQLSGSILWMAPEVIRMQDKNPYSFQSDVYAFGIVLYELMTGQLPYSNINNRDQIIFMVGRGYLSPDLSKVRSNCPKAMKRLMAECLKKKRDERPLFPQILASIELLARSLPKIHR
T2 sequence (P00519 whole entry, change not shown, the tested form may be a part): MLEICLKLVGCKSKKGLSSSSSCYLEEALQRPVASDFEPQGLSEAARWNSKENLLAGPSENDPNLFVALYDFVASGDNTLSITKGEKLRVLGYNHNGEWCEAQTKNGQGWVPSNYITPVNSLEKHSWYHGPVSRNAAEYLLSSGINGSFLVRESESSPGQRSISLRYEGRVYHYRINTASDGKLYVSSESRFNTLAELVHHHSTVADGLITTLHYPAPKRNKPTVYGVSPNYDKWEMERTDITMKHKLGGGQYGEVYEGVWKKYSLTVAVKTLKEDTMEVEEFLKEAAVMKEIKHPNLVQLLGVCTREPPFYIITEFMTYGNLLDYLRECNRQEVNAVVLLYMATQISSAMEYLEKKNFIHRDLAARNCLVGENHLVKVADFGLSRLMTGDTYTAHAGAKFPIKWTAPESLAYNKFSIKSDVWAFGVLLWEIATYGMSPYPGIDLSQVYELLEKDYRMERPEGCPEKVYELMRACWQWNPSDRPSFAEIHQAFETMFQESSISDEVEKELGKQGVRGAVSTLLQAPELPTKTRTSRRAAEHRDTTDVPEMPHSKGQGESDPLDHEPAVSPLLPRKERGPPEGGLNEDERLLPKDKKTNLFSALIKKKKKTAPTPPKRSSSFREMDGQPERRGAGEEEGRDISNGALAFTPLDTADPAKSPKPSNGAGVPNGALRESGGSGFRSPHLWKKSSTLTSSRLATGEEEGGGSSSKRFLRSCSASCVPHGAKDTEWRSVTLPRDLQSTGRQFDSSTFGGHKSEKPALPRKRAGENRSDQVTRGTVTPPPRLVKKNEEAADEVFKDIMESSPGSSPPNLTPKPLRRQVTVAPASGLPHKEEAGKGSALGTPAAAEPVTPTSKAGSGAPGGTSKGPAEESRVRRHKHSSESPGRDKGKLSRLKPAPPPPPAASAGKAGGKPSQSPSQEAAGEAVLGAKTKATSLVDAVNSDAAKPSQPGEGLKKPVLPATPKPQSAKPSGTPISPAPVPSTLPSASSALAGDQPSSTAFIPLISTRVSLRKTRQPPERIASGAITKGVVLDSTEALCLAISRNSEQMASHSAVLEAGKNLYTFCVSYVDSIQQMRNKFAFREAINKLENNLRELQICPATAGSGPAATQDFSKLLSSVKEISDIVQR

IC50 [1] [µM]	IC50 (Abl kinase (SEQ ID NO:1)) [µM]	GI50 [2] [µM]	Structure (SMILES)
< 1	< 0.1	< 0.1	CCc1cc(NC(=O)Nc2ccc(Oc3ccnc(-c4cnn(C)c4)c3)cc2F)n(-c2ccc(CO)cc2)n1 [Example 19, 1-(3-ethyl-1-(4-(hydroxymethyl)phenyl)-1H-pyrazol-5-yl)-3-(2-fluoro-4-(2-(1-methyl-1H-pyrazol-4-yl)pyridin-4-yloxy)phenyl)urea]
< 0.1	< 0.1	< 0.1	CC(C)c1cc(NC(=O)Nc2ccc(Oc3ccnc(-c4cnn(C)c4)c3)cc2F)n(-c2ccc(F)c(C#N)c2)n1 [Example 5, 1-(1-(3-cyano-4-fluorophenyl)-3-isopropyl-1H-pyrazol-5-yl)-3-(2-fluoro-4-(2-(1-methyl-1H-pyrazol-4-yl)pyridin-4-yloxy)phenyl)urea]
< 0.1	< 0.1	< 0.1	CC(C)c1cc(NC(=O)Nc2ccc(Oc3ccnc(-c4cnn(C)c4)c3)cc2F)n(-c2cccc(C#N)c2)n1 [Example 2, 1-(1-(3-cyanophenyl)-3-isopropyl-1H-pyrazol-5-yl)-3-(2-fluoro-4-(2-(1-methyl-1H-pyrazol-4-yl)pyridin-4-yloxy)phenyl)urea]
